Measurements from ChEMBL document CHEMBL3045199, “Synthesis of some (E)-6-[2-(furan-2-yl)ethenyl]-1,2,4-triazin-5-ones and their biological evaluation as antitumor agents” (2013).

Key:
Type in all cases: functional
T47D [1] = assay: Cytotoxicity against Homo sapiens (human) T47D cells after 48 hr by SRB assay
MCF7 = assay: Cytotoxicity against Homo sapiens (human) MCF7 cells after 48 hr by SRB assay; conditions: MCF7, 48 h
UO-31 = assay: Cytotoxicity against Homo sapiens (human) UO31 cells after 48 hr by SRB assay; conditions: UO-31, 48 h
SN12C = assay: Cytotoxicity against Homo sapiens (human) SN12C cells after 48 hr by SRB assay
CAKI-1 = assay: Cytotoxicity against Homo sapiens (human) Caki1 cells after 48 hr by SRB assay; conditions: CAKI-1, 48 h
786-0 = assay: Cytotoxicity against Homo sapiens (human) 786-0 cells after 48 hr by SRB assay; conditions: 786-0, 48 h
[2] = Cytotoxicity against Homo sapiens (human) NCI-ADR-RES cells after 48 hr by SRB assay
SNB-19 [3] = assay: Cytotoxicity against Homo sapiens (human) SNB19 cells assessed as growth inhibition at 10 uM after 24 hr; conditions: SNB-19, 24 h, read-out: GI
HCC 2998 = assay: Cytotoxicity against Homo sapiens (human) HCC2998 cells assessed as growth inhibition at 10 uM after 24 hr; conditions: HCC 2998, 24 h, read-out: GI
HOP-92 = assay: Cytotoxicity against Homo sapiens (human) HOP92 cells assessed as growth inhibition at 10 uM after 24 hr; conditions: HOP-92, 24 h, read-out: GI
SR = assay: Cytotoxicity against Homo sapiens (human) SR cells assessed as growth inhibition at 10 uM after 24 hr; conditions: read-out: GI
RPMI-8226 [4] = assay: Cytotoxicity against Homo sapiens (human) RPMI8226 cells assessed as growth inhibition at 10 uM after 24 hr; conditions: RPMI-8226, 24 h, read-out: GI
MOLT-4 = assay: Cytotoxicity against Homo sapiens (human) MOLT4 cells assessed as growth inhibition at 10 uM after 24 hr; conditions: MOLT-4, 24 h, read-out: GI
ACHN = assay: Cytotoxicity against Homo sapiens (human) ACHN cells assessed as growth inhibition at 10 uM after 24 hr; conditions: read-out: GI
SK-OV-3 = assay: Cytotoxicity against Homo sapiens (human) SKOV3 cells assessed as growth inhibition at 10 uM after 24 hr; conditions: SK-OV-3, 24 h, read-out: GI
[5] = Cytotoxicity against Homo sapiens (human) NCI-ADR-RES cells assessed as growth inhibition at 10 uM after 24 hr; conditions: read-out: GI
OVCAR-8 [6] = assay: Cytotoxicity against Homo sapiens (human) OVCAR8 cells assessed as growth inhibition at 10 uM after 24 hr; conditions: OVCAR-8, 24 h, read-out: GI
M14 [7] = assay: Cytotoxicity against Homo sapiens (human) M14 cells assessed as growth inhibition at 10 uM after 24 hr; conditions: M14, 24 h, read-out: GI
T47D [8] = assay: Cytotoxicity against Homo sapiens (human) T47D cells assessed as growth inhibition at 10 uM after 24 hr; conditions: read-out: GI
PC-3 = assay: Cytotoxicity against Homo sapiens (human) PC3 cells assessed as growth inhibition at 10 uM after 24 hr; conditions: PC-3, 24 h, read-out: GI
DU-145 = assay: Cytotoxicity against Homo sapiens (human) DU145 cells assessed as growth inhibition at 10 uM after 24 hr; conditions: DU-145, 24 h, read-out: GI
EKVX = assay: Cytotoxicity against Homo sapiens (human) EKVX cells after 48 hr by SRB assay
RPMI-8226 [9] = assay: Cytotoxicity against Homo sapiens (human) RPMI8226 cells after 48 hr by SRB assay; conditions: RPMI-8226, 48 h
OVCAR-8 [10] = assay: Cytotoxicity against Homo sapiens (human) OVCAR8 cells after 48 hr by SRB assay; conditions: OVCAR-8, 48 h
SK-MEL-28 = assay: Cytotoxicity against Homo sapiens (human) SK-MEL-28 cells after 48 hr by SRB assay; conditions: SK-MEL-28, 48 h
Malme-3M = assay: Cytotoxicity against Homo sapiens (human) MALME-3M cells after 48 hr by SRB assay
M14 [11] = assay: Cytotoxicity against Homo sapiens (human) M14 cells after 48 hr by SRB assay; conditions: M14, 48 h
U-251 = assay: Cytotoxicity against Homo sapiens (human) U251 cells after 48 hr by SRB assay; conditions: U-251, 48 h
LOX IMVI = assay: Cytotoxicity against Homo sapiens (human) LOXIMVI cells after 48 hr by SRB assay
SNB-19 [12] = assay: Cytotoxicity against Homo sapiens (human) SNB19 cells after 48 hr by SRB assay; conditions: SNB-19, 48 h
SNB-75 = assay: Cytotoxicity against Homo sapiens (human) SNB75 cells after 48 hr by SRB assay; conditions: SNB-75, 48 h
SW-620 = assay: Cytotoxicity against Homo sapiens (human) SW620 cells after 48 hr by SRB assay; conditions: SW-620, 48 h
SF-268 = assay: Cytotoxicity against Homo sapiens (human) SF268 cells after 48 hr by SRB assay; conditions: SF-268, 48 h
HT-29 = assay: Cytotoxicity against Homo sapiens (human) HT-29 cells after 48 hr by SRB assay; conditions: HT-29, 48 h
COLO 205 = assay: Cytotoxicity against Homo sapiens (human) COLO205 cells after 48 hr by SRB assay; conditions: COLO 205, 48 h
NCI-H460 = assay: Cytotoxicity against Homo sapiens (human) NCI-H460 cells after 48 hr by SRB assay; conditions: NCI-H460, 48 h
NCI-H522 = assay: Cytotoxicity against Homo sapiens (human) NCI-H522 cells after 48 hr by SRB assay; conditions: NCI-H522, 48 h
[13] = read-out: LC50 (the source's name)

## Nc1cc(-c2ccc(Cl)cc2)nn1-c1nc(=O)c(/C=C/c2ccco2)n[nH]1
T47D [1]
  LC50: > 100 µM
  TGI: 44.2 µM
T47D [1]; read-out: GI50
  GI50: 4.37 µM
T47D [1]; read-out: pGI50 (converted)
  GI50: 4.37 µM
MCF7
  LC50 (concentration killing 50% of cells): > 100 µM
  TGI: 50.4 µM
MCF7; read-out: GI50
  GI50: 4.05 µM
MCF7; read-out: pGI50 (converted)
  GI50: 4.07 µM
UO-31
  TGI: 13.7 µM
UO-31; read-out: GI50
  GI50: 1.63 µM
UO-31; [13]
  CC50: > 100 µM
UO-31; read-out: pGI50 (converted)
  GI50: 1.62 µM
SN12C
  TGI: > 100 µM
SN12C; read-out: GI50
  GI50: 18.7 µM
SN12C; [13]
  CC50: > 100 µM
SN12C; read-out: pGI50 (converted)
  GI50: 18.6 µM
CAKI-1
  LC50: > 100 µM
  TGI: 4.6 µM
CAKI-1; read-out: GI50
  GI50: 0.37 µM
CAKI-1; read-out: pGI50 (converted)
  GI50: 0.372 µM
786-0
  LC50: > 100 µM
  TGI: 21.2 µM
786-0; read-out: GI50
  GI50: 3.98 µM
786-0; read-out: pGI50 (converted)
  GI50: 3.98 µM
[2]
  GI50: 1.23 µM
  TGI: 8.11 µM
[2]; [13]
  CC50: 96.4 µM
SNB-19 [3]
  inhibition of growth at 10 µM: 42.4%
HCC 2998
  inhibition of growth at 10 µM: 51.5%
HOP-92
  inhibition of growth at 10 µM: 39.7%
SR
  inhibition of growth at 10 µM: 61.9%
RPMI-8226 [4]
  inhibition of growth at 10 µM: 56.7%
MOLT-4
  inhibition of growth at 10 µM: 55.6%
ACHN
  inhibition of growth at 10 µM: 70.6%
SK-OV-3
  inhibition of growth at 10 µM: 39.3%
[5]
  inhibition of growth at 10 µM: 94.3%
OVCAR-8 [6]
  inhibition of growth at 10 µM: 75.2%
M14 [7]
  inhibition of growth at 10 µM: 42.6%
T47D [8]
  inhibition of growth at 10 µM: 37.3%
PC-3
  inhibition of growth at 10 µM: 47.4%
DU-145
  inhibition of growth at 10 µM: 36.7%
EKVX
  TGI: 31.1 µM
EKVX; read-out: GI50
  GI50: 3.57 µM
EKVX; [13]
  CC50: > 100 µM
EKVX; read-out: pGI50 (converted)
  GI50: 3.55 µM
RPMI-8226 [9]
  LC50: > 100 µM
  TGI: 23.2 µM
RPMI-8226 [9]; read-out: GI50
  GI50: 3.03 µM
RPMI-8226 [9]; read-out: pGI50 (converted)
  GI50: 3.02 µM
OVCAR-8 [10]
  TGI: 65.8 µM
OVCAR-8 [10]; read-out: GI50
  GI50: 4.47 µM
OVCAR-8 [10]; [13]
  CC50: > 100 µM
OVCAR-8 [10]; read-out: pGI50 (converted)
  GI50: 4.47 µM
SK-MEL-28
  LC50: > 100 µM
  TGI: 82.3 µM
SK-MEL-28; read-out: GI50
  GI50: 4.06 µM
SK-MEL-28; read-out: pGI50 (converted)
  GI50: 4.07 µM
Malme-3M
  LC50: > 100 µM
  TGI: 53.1 µM
Malme-3M; read-out: GI50
  GI50: 11 µM
Malme-3M; read-out: pGI50 (converted)
  GI50: 11 µM
M14 [11]
  LC50: > 100 µM
  TGI: 31.7 µM
M14 [11]; read-out: GI50
  GI50: 2.27 µM
M14 [11]; read-out: pGI50 (converted)
  GI50: 2.29 µM
U-251
  TGI: 84.8 µM
U-251; read-out: GI50
  GI50: 4.47 µM
U-251; [13]
  CC50: > 100 µM
U-251; read-out: pGI50 (converted)
  GI50: 4.47 µM
LOX IMVI
  TGI: 73.4 µM
LOX IMVI; read-out: GI50
  GI50: 6.69 µM
LOX IMVI; [13]
  CC50: > 100 µM
LOX IMVI; read-out: pGI50 (converted)
  GI50: 6.76 µM
SNB-19 [12]
  TGI: 69.4 µM
SNB-19 [12]; read-out: GI50
  GI50: 5.81 µM
SNB-19 [12]; [13]
  CC50: > 100 µM
SNB-19 [12]; read-out: pGI50 (converted)
  GI50: 5.75 µM
SNB-75
  TGI: 37.2 µM
SNB-75; read-out: GI50
  GI50: 10.6 µM
SNB-75; [13]
  CC50: > 100 µM
SNB-75; read-out: pGI50 (converted)
  GI50: 10.7 µM
SW-620
  TGI: > 100 µM
SW-620; read-out: GI50
  GI50: 5.02 µM
SW-620; [13]
  CC50: > 100 µM
SW-620; read-out: pGI50 (converted)
  GI50: 5.01 µM
SF-268
  TGI: 25.1 µM
SF-268; read-out: GI50
  GI50: 1.99 µM
SF-268; [13]
  CC50: > 100 µM
SF-268; read-out: pGI50 (converted)
  GI50: 2 µM
HT-29
  TGI: > 100 µM
HT-29; read-out: GI50
  GI50: 7.82 µM
HT-29; [13]
  CC50: > 100 µM
HT-29; read-out: pGI50 (converted)
  GI50: 7.76 µM
COLO 205
  TGI: 18.4 µM
COLO 205; read-out: GI50
  GI50: 3.44 µM
COLO 205; [13]
  CC50: > 100 µM
COLO 205; read-out: pGI50 (converted)
  GI50: 3.47 µM
NCI-H460
  TGI: 13.9 µM
NCI-H460; read-out: GI50
  GI50: 1.88 µM
NCI-H460; [13]
  CC50: > 100 µM
NCI-H460; read-out: pGI50 (converted)
  GI50: 1.86 µM
NCI-H522
  TGI: 36.8 µM
NCI-H522; read-out: GI50
  GI50: 5.12 µM
NCI-H522; [13]
  CC50: > 100 µM
NCI-H522; read-out: pGI50 (converted)
  GI50: 5.13 µM
